How the values were obtained:
Design in all cases: scale not given here
ABUTH Velvetleaf [1] = test: Postemergence herbicidal evaluation, ABUTH; type: in vivo, Abutilon theophrasti, Medic.; conditions: postemergence spray, rated about two-three weeks after treatment
Procedure, shortened: (§1)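 Postemergence spray, 40 psi nozzle, on ~2-week seedlings. Carrier: acetone/water 80/20, 1.0% methylated seed oil; dose ~0.006–0.400 kg/ha. Scored visually at 2–3 weeks.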

AMBEL Ragweed, Common [2] = test: Postemergence herbicidal evaluation, AMBEL; type: in vivo, Ambrosia artemisifolia, L.; conditions: postemergence spray, rated about two-three weeks after treatment
Procedure, shortened: as §1

CASOB Sicklepod [3] = test: Postemergence herbicidal evaluation, CASOB; type: in vivo, Cassia obtusifolia, L.; conditions: postemergence spray, rated about two-three weeks after treatment
Procedure, shortened: as §1

[4] = system: CHEAL Lambsquarters, Common; test: Postemergence herbicidal evaluation, CHEAL; type: in vivo, Chenopodium album, L.; conditions: postemergence spray, rated about two-three weeks after treatment
Procedure, shortened: as §1

ECHOG Barnyardgrass [5] = test: Postemergence herbicidal evaluation, ECHOG; type: in vivo, Echinochloa crus-galli, (L.) Beau; conditions: postemergence spray, rated about two-three weeks after treatment
Procedure, shortened: as §1

GALAP Galium [6] = test: Postemergence herbicidal evaluation, GALAP; type: in vivo, Galium aparine; conditions: postemergence spray, rated about two-three weeks after treatment
Procedure, shortened: as §1

[7] = system: IPOHE Morningglory, Ivyleaf; test: Postemergence herbicidal evaluation, IPOHE; type: in vivo, Ipomoea hederacea, (L.) Jacq.; conditions: postemergence spray, rated about two-three weeks after treatment
Procedure, shortened: as §1

SETVI Foxtail, Green [8] = test: Postemergence herbicidal evaluation, SETVI; type: in vivo, Setaria viridis, (L.) Beau; conditions: postemergence spray, rated about two-three weeks after treatment
Procedure, shortened: as §1

GLXMAW Soybean, Williams [9] = test: Postemergence herbicidal evaluation, GLXMAW; type: in vivo, Glycine max, (L.) Merr. cv Williams; conditions: postemergence spray, rated about two-three weeks after treatment
Procedure, shortened: as §1

[10] = system: TRZAWR Wheat, Winter, cv Riband; test: Postemergence herbicidal evaluation, TRZAWR; type: in vivo, Triticum aestivum; conditions: postemergence spray, rated about two-three weeks after treatment
Procedure, shortened: as §1

ORYSAT Rice, Tebonnet [11] = test: Postemergence herbicidal evaluation, ORYSAT; type: in vivo, Oryza sativa, (L.); conditions: postemergence spray, rated about two-three weeks after treatment
Procedure, shortened: as §1

ZEAMX Corn, Field [12] = test: Postemergence herbicidal evaluation, ZEAMX; type: in vivo, Zea mays, L. (Sammel-Bezeichnung); conditions: postemergence spray, rated about two-three weeks after treatment
Procedure, shortened: as §1

ABUTH Velvetleaf [13] = test: Preemergence herbicidal evaluation, ABUTH; type: in vivo, Abutilon theophrasti, Medic.; conditions: preemergence
Procedure, shortened: (§2)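 First, seed is blended with potting soil and sown over roughly an inch of soil per cup. Next, the surface is sprayed with an aqueous acetone solution delivering about 0.013–0.800 kg/ha. Finally, cups are grown in the greenhouse and rated after 4–5 weeks.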

AMBEL Ragweed, Common [14] = test: Preemergence herbicidal evaluation, AMBEL; type: in vivo, Ambrosia artemisifolia, L.; conditions: preemergence
Procedure, shortened: as §2

CASOB Sicklepod [15] = test: Preemergence herbicidal evaluation, CASOB; type: in vivo, Cassia obtusifolia, L.; conditions: preemergence
Procedure, shortened: as §2

[16] = system: CHEAL Lambsquarters, Common; test: Preemergence herbicidal evaluation, CHEAL; type: in vivo, Chenopodium album, L.; conditions: preemergence
Procedure, shortened: as §2

ECHOG Barnyardgrass [17] = test: Preemergence herbicidal evaluation, ECHOG; type: in vivo, Echinochloa crus-galli, (L.) Beau; conditions: preemergence
Procedure, shortened: as §2

GALAP Galium [18] = test: Preemergence herbicidal evaluation, GALAP; type: in vivo, Galium aparine; conditions: preemergence
Procedure, shortened: as §2

[19] = system: IPOHE Morningglory, Ivyleaf; test: Preemergence herbicidal evaluation, IPOHE; type: in vivo, Ipomoea hederacea, (L.) Jacq.; conditions: preemergence
Procedure, shortened: as §2

SETVI Foxtail, Green [20] = test: Preemergence herbicidal evaluation, SETVI; type: in vivo, Setaria viridis, (L.) Beau; conditions: preemergence
Procedure, shortened: as §2

GLXMAW Soybean, Williams [21] = test: Preemergence herbicidal evaluation, GLXMAW; type: in vivo, Glycine max, (L.) Merr. cv Williams; conditions: preemergence
Procedure, shortened: as §2

[22] = system: TRZAWR Wheat, Winter, cv Riband; test: Preemergence herbicidal evaluation, TRZAWR; type: in vivo, Triticum aestivum; conditions: preemergence
Procedure, shortened: as §2

ORYSAT Rice, Tebonnet [23] = test: Preemergence herbicidal evaluation, ORYSAT; type: in vivo, Oryza sativa, (L.); conditions: preemergence
Procedure, shortened: as §2

ZEAMX Corn, Field [24] = test: Preemergence herbicidal evaluation, ZEAMX; type: in vivo, Zea mays, L. (Sammel-Bezeichnung); conditions: preemergence
Procedure, shortened: as §2

C=CCOc1ccc(-n2nnc3cc(F)c(-n4c(=O)cc(C(F)(F)F)n(C)c4=O)cc32)c(C)c1 [Example 43]
Postemergence herbicidal rating ABUTH (ABUTH Velvetleaf [1]; 0.008 kg/ha): 9.0
Postemergence herbicidal rating ABUTH (ABUTH Velvetleaf [1]; 0.016 kg/ha): 9.0
Postemergence herbicidal rating ABUTH (ABUTH Velvetleaf [1]; 0.032 kg/ha): 9.0
Postemergence herbicidal rating ABUTH (ABUTH Velvetleaf [1]; 0.062 kg/ha): 9.0
Postemergence herbicidal rating AMBEL (AMBEL Ragweed, Common [2]; 0.008 kg/ha): 1.0
Postemergence herbicidal rating AMBEL (AMBEL Ragweed, Common [2]; 0.016 kg/ha): 7.0
Postemergence herbicidal rating AMBEL (AMBEL Ragweed, Common [2]; 0.032 kg/ha): 7.0
Postemergence herbicidal rating AMBEL (AMBEL Ragweed, Common [2]; 0.062 kg/ha): 9.0
Postemergence herbicidal rating CASOB (CASOB Sicklepod [3]; 0.008 kg/ha): 0.0
Postemergence herbicidal rating CASOB (CASOB Sicklepod [3]; 0.016 kg/ha): 0.0
Postemergence herbicidal rating CASOB (CASOB Sicklepod [3]; 0.032 kg/ha): 0.0
Postemergence herbicidal rating CASOB (CASOB Sicklepod [3]; 0.062 kg/ha): 3.0
Postemergence herbicidal rating CHEAL ([4]; 0.008 kg/ha): 0.0
Postemergence herbicidal rating CHEAL ([4]; 0.016 kg/ha): 3.0
Postemergence herbicidal rating CHEAL ([4]; 0.032 kg/ha): 3.0
Postemergence herbicidal rating CHEAL ([4]; 0.062 kg/ha): 4.0
Postemergence herbicidal rating ECHCG (ECHOG Barnyardgrass [5]; 0.008 kg/ha): 1.0
Postemergence herbicidal rating ECHCG (ECHOG Barnyardgrass [5]; 0.016 kg/ha): 1.0
Postemergence herbicidal rating ECHCG (ECHOG Barnyardgrass [5]; 0.032 kg/ha): 1.0
Postemergence herbicidal rating ECHCG (ECHOG Barnyardgrass [5]; 0.062 kg/ha): 2.0
Postemergence herbicidal rating GALAP (GALAP Galium [6]; 0.008 kg/ha): 0.0
Postemergence herbicidal rating GALAP (GALAP Galium [6]; 0.016 kg/ha): 0.0
Postemergence herbicidal rating GALAP (GALAP Galium [6]; 0.032 kg/ha): 1.0
Postemergence herbicidal rating GALAP (GALAP Galium [6]; 0.062 kg/ha): 1.0
Postemergence herbicidal rating IPOHE ([7]; 0.008 kg/ha): 9.0
Postemergence herbicidal rating IPOHE ([7]; 0.016 kg/ha): 9.0
Postemergence herbicidal rating IPOHE ([7]; 0.032 kg/ha): 9.0
Postemergence herbicidal rating IPOHE ([7]; 0.062 kg/ha): 9.0
Postemergence herbicidal rating SETVI (SETVI Foxtail, Green [8]; 0.008 kg/ha): 0.0
Postemergence herbicidal rating SETVI (SETVI Foxtail, Green [8]; 0.016 kg/ha): 1.0
Postemergence herbicidal rating SETVI (SETVI Foxtail, Green [8]; 0.032 kg/ha): 9.0
Postemergence herbicidal rating SETVI (SETVI Foxtail, Green [8]; 0.062 kg/ha): 9.0
Postemergence herbicidal rating GLXMAW (GLXMAW Soybean, Williams [9]; 0.008 kg/ha): 5.0
Postemergence herbicidal rating GLXMAW (GLXMAW Soybean, Williams [9]; 0.016 kg/ha): 5.0
Postemergence herbicidal rating GLXMAW (GLXMAW Soybean, Williams [9]; 0.032 kg/ha): 5.5
Postemergence herbicidal rating GLXMAW (GLXMAW Soybean, Williams [9]; 0.062 kg/ha): 5.5
Postemergence herbicidal rating TRZAWR ([10]; 0.008 kg/ha): 3.0
Postemergence herbicidal rating TRZAWR ([10]; 0.016 kg/ha): 3.0
Postemergence herbicidal rating TRZAWR ([10]; 0.032 kg/ha): 3.0
Postemergence herbicidal rating TRZAWR ([10]; 0.062 kg/ha): 3.0
Postemergence herbicidal rating ORYSAT (ORYSAT Rice, Tebonnet [11]; 0.008 kg/ha): 2.5
Postemergence herbicidal rating ORYSAT (ORYSAT Rice, Tebonnet [11]; 0.016 kg/ha): 2.0
Postemergence herbicidal rating ORYSAT (ORYSAT Rice, Tebonnet [11]; 0.032 kg/ha): 2.0
Postemergence herbicidal rating ORYSAT (ORYSAT Rice, Tebonnet [11]; 0.062 kg/ha): 3.0
Postemergence herbicidal rating ZEAMX (ZEAMX Corn, Field [12]; 0.008 kg/ha): 4.0
Postemergence herbicidal rating ZEAMX (ZEAMX Corn, Field [12]; 0.016 kg/ha): 5.0
Postemergence herbicidal rating ZEAMX (ZEAMX Corn, Field [12]; 0.032 kg/ha): 5.0
Postemergence herbicidal rating ZEAMX (ZEAMX Corn, Field [12]; 0.062 kg/ha): 5.0
ABUTH herbicidal rating (ABUTH Velvetleaf [13]; rate 0.016 kg/ha): 0.0
ABUTH herbicidal rating (ABUTH Velvetleaf [13]; rate 0.032 kg/ha): 1.0
ABUTH herbicidal rating (ABUTH Velvetleaf [13]; rate 0.062 kg/ha): 9.0
ABUTH herbicidal rating (ABUTH Velvetleaf [13]; rate 0.125 kg/ha): 8.0
AMBEL herbicidal rating (AMBEL Ragweed, Common [14]; rate 0.016 kg/ha): 0.0
AMBEL herbicidal rating (AMBEL Ragweed, Common [14]; rate 0.032 kg/ha): 0.0
AMBEL herbicidal rating (AMBEL Ragweed, Common [14]; rate 0.062 kg/ha): 0.0
AMBEL herbicidal rating (AMBEL Ragweed, Common [14]; rate 0.125 kg/ha): 0.0
CASOB herbicidal rating (CASOB Sicklepod [15]; rate 0.016 kg/ha): 0.0
CASOB herbicidal rating (CASOB Sicklepod [15]; rate 0.032 kg/ha): 0.0
CASOB herbicidal rating (CASOB Sicklepod [15]; rate 0.062 kg/ha): 0.0
CASOB herbicidal rating (CASOB Sicklepod [15]; rate 0.125 kg/ha): 0.0
CHEAL herbicidal rating ([16]; rate 0.016 kg/ha): 9.0
CHEAL herbicidal rating ([16]; rate 0.032 kg/ha): 9.0
CHEAL herbicidal rating ([16]; rate 0.062 kg/ha): 9.0
CHEAL herbicidal rating ([16]; rate 0.125 kg/ha): 9.0
ECHCG herbicidal rating (ECHOG Barnyardgrass [17]; rate 0.016 kg/ha): 0.0
ECHCG herbicidal rating (ECHOG Barnyardgrass [17]; rate 0.032 kg/ha): 0.0
ECHCG herbicidal rating (ECHOG Barnyardgrass [17]; rate 0.062 kg/ha): 0.0
ECHCG herbicidal rating (ECHOG Barnyardgrass [17]; rate 0.125 kg/ha): 1.0
GALAP herbicidal rating (GALAP Galium [18]; rate 0.016 kg/ha): 0.0
GALAP herbicidal rating (GALAP Galium [18]; rate 0.032 kg/ha): 0.0
GALAP herbicidal rating (GALAP Galium [18]; rate 0.062 kg/ha): 0.0
GALAP herbicidal rating (GALAP Galium [18]; rate 0.125 kg/ha): 0.0
IPOHE herbicidal rating ([19]; rate 0.016 kg/ha): 0.0
IPOHE herbicidal rating ([19]; rate 0.032 kg/ha): 0.0
IPOHE herbicidal rating ([19]; rate 0.062 kg/ha): 0.0
IPOHE herbicidal rating ([19]; rate 0.125 kg/ha): 0.0
SETVI herbicidal rating (SETVI Foxtail, Green [20]; rate 0.016 kg/ha): 0.0
SETVI herbicidal rating (SETVI Foxtail, Green [20]; rate 0.032 kg/ha): 1.0
SETVI herbicidal rating (SETVI Foxtail, Green [20]; rate 0.062 kg/ha): 4.0
SETVI herbicidal rating (SETVI Foxtail, Green [20]; rate 0.125 kg/ha): 7.0
GLXMAW herbicidal rating (GLXMAW Soybean, Williams [21]; rate 0.016 kg/ha): 1.0
GLXMAW herbicidal rating (GLXMAW Soybean, Williams [21]; rate 0.032 kg/ha): 1.0
GLXMAW herbicidal rating (GLXMAW Soybean, Williams [21]; rate 0.062 kg/ha): 0.0
GLXMAW herbicidal rating (GLXMAW Soybean, Williams [21]; rate 0.125 kg/ha): 1.0
TRZAWR herbicidal rating ([22]; rate 0.016 kg/ha): 0.0
TRZAWR herbicidal rating ([22]; rate 0.032 kg/ha): 0.0
TRZAWR herbicidal rating ([22]; rate 0.062 kg/ha): 0.0
TRZAWR herbicidal rating ([22]; rate 0.125 kg/ha): 1.0
ORYSAT herbicidal rating (ORYSAT Rice, Tebonnet [23]; rate 0.016 kg/ha): 0.0
ORYSAT herbicidal rating (ORYSAT Rice, Tebonnet [23]; rate 0.032 kg/ha): 0.0
ORYSAT herbicidal rating (ORYSAT Rice, Tebonnet [23]; rate 0.062 kg/ha): 0.0
ORYSAT herbicidal rating (ORYSAT Rice, Tebonnet [23]; rate 0.125 kg/ha): 0.0
ZEAMX herbicidal rating (ZEAMX Corn, Field [24]; rate 0.016 kg/ha): 0.0
ZEAMX herbicidal rating (ZEAMX Corn, Field [24]; rate 0.032 kg/ha): 0.0
ZEAMX herbicidal rating (ZEAMX Corn, Field [24]; rate 0.062 kg/ha): 0.0
ZEAMX herbicidal rating (ZEAMX Corn, Field [24]; rate 0.125 kg/ha): 2.0

Reference: patent US20020111274A1, “1-alkyl-3-[1-(substituted phenyl) benzotriazol-6-yl] uracils” (BASF Aktiengesellschaft, priority 2000, published 2002)
